Data from patent publication US12157741B2, “Macrocyclic inhibitors of DYRK1A” (DANA-FARBER CANCER INSTITUTE, INC., priority 2018, dated 2024).
Read-outs that look alike come from different tables or passages of the source.

What was measured:
[1] = biological target: various enzymes (Homo sapiens, UniProt P00533, DEL752-759); settings: EGFR(S752-I759del); 1 uM
Protocol: (§1) Ambit profiling from Eurofins (formerly Discoverx) was conducted in accordance with the manufacturer's instructions.

[2] = biological target: various enzymes (Homo sapiens, UniProt Q9H4A3); settings: WNK1; 1 uM
Protocol: as §1

[3] = biological target: various enzymes (Homo sapiens, UniProt Q9Y2K2); settings: QSK; 1 uM
Protocol: as §1

[4] = biological target: various enzymes (Homo sapiens, UniProt P00533, L861Q)
Protocol: as §1

[5] = biological target: various enzymes (Homo sapiens, UniProt P00533, G719C)
Protocol: as §1

[6] = biological target: various enzymes (Homo sapiens, UniProt P00533, L858R)
Protocol: as §1

[7] = biological target: various enzymes (Homo sapiens, UniProt Q9Y6M4); settings: CSNK1G3; 1 uM
Protocol: as §1

[8] = biological target: various enzymes (Homo sapiens, UniProt P54756); settings: EPHA5; 1 uM
Protocol: as §1

[9] = biological target: various enzymes (Homo sapiens, UniProt P53779); settings: JNK3; 1 uM
Protocol: as §1

[10] = biological target: various enzymes (Homo sapiens, UniProt P00533, G719S)
Protocol: as §1

[11] = biological target: various enzymes (Homo sapiens, UniProt Q9UK32); settings: 1 uM
Chain of various enzymes (Homo sapiens, UniProt Q9UK32) (Q9UK32 whole entry): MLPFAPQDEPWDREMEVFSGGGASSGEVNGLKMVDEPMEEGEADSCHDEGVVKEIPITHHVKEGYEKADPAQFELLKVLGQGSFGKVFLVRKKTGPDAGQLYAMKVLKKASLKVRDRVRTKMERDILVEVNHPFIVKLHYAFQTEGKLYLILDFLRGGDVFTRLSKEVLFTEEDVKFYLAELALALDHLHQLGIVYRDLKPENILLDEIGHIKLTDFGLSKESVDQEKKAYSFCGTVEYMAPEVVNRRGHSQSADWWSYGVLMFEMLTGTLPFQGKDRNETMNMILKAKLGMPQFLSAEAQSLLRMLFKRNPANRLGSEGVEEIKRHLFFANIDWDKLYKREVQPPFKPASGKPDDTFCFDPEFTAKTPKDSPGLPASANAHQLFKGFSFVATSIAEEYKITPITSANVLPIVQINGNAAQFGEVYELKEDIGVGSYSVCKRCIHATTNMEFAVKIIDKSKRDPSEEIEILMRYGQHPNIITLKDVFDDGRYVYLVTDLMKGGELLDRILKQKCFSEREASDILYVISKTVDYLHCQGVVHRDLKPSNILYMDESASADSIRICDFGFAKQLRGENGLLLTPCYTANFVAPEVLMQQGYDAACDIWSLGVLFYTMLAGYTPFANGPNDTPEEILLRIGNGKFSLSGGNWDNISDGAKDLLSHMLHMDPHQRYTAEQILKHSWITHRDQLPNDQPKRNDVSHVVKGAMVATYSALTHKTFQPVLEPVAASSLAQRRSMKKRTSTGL
Protocol: as §1

[12] = biological target: T1, various enzymes (Homo sapiens, UniProt Q9NRM7); settings: LATS2; 1 uM
T1 sequence (Q9NRM7 1-1088): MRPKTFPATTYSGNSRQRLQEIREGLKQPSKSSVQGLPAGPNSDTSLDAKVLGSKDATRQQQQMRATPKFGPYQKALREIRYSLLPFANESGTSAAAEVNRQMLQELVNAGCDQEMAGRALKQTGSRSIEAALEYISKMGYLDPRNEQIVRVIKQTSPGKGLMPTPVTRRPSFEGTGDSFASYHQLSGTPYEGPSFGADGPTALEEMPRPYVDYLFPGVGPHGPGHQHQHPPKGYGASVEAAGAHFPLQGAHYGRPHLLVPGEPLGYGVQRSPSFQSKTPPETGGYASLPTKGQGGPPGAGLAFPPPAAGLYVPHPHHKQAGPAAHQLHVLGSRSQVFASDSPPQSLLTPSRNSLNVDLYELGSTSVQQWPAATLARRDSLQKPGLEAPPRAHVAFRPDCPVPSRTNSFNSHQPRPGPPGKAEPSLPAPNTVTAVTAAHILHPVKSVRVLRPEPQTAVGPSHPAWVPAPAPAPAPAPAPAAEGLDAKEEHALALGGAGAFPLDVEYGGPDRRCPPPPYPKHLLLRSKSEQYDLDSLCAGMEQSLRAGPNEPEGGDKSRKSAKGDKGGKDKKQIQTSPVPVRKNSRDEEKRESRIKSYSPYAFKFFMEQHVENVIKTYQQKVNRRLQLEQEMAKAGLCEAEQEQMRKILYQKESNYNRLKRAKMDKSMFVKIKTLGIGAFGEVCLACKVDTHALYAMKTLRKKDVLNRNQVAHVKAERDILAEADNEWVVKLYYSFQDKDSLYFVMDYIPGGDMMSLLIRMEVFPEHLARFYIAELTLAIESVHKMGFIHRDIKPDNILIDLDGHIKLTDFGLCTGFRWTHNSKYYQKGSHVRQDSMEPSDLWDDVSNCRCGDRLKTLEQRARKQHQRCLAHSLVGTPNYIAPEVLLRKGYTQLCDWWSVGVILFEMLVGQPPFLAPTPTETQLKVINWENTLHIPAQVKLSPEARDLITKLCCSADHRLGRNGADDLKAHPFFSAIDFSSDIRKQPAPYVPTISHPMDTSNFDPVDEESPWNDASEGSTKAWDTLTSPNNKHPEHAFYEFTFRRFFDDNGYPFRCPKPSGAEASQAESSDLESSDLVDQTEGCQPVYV
Protocol: as §1

[13] = biological target: various enzymes (Homo sapiens, UniProt P43405); settings: SYK; 1 uM
Protocol: as §1

[14] = biological target: various enzymes (Homo sapiens, UniProt O14578); settings: CIT; 1 uM
Chain of various enzymes (Homo sapiens, UniProt O14578) (O14578 whole entry): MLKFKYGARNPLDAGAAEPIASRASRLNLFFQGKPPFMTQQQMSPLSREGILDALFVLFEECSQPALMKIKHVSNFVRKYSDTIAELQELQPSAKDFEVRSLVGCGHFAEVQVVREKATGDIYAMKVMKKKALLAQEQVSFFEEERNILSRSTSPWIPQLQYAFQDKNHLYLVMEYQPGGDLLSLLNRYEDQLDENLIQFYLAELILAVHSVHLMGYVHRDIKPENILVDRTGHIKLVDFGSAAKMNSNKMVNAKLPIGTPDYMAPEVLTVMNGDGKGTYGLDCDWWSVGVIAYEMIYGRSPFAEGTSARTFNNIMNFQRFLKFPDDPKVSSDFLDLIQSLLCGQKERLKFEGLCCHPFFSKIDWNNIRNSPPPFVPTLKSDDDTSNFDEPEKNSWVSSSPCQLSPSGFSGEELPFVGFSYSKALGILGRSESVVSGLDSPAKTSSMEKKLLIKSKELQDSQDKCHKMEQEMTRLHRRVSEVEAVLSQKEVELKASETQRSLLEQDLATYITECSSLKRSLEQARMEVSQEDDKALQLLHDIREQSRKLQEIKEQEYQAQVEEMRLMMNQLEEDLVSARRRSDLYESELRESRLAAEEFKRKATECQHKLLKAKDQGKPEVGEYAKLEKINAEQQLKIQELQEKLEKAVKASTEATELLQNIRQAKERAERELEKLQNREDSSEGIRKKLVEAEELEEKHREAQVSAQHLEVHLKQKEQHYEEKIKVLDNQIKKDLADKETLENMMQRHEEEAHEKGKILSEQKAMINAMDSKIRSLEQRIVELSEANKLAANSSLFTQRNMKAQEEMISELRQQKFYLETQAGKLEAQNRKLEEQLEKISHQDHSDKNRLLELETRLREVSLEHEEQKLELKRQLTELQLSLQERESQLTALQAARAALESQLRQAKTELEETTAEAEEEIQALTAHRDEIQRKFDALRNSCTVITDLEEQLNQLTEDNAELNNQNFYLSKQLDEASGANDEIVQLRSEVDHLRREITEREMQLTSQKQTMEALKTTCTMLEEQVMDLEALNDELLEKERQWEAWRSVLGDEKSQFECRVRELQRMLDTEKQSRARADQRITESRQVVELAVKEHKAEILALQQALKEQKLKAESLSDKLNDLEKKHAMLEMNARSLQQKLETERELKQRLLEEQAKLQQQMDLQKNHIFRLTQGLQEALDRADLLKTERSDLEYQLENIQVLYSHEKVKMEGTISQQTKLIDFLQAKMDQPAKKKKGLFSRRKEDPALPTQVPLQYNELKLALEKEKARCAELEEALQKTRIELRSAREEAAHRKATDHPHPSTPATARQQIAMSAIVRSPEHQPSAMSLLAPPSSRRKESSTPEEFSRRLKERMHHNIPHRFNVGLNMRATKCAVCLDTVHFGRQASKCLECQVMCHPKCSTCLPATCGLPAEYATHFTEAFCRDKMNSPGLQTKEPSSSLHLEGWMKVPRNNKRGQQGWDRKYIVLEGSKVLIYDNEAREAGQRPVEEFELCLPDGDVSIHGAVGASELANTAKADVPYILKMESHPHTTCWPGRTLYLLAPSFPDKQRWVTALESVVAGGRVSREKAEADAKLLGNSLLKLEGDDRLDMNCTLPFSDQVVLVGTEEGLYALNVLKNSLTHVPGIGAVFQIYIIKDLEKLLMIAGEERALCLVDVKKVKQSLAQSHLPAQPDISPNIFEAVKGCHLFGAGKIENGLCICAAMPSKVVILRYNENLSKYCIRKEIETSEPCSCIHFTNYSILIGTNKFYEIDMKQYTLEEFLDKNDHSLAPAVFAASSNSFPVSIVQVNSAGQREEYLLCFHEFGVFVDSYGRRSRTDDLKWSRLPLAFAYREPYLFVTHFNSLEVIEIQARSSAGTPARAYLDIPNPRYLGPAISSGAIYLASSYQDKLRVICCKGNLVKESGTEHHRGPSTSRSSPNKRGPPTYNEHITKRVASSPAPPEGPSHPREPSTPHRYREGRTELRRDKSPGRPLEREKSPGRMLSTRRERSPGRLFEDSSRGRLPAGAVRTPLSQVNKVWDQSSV
Protocol: as §1

[15] = biological target: T2, various enzymes (Homo sapiens, UniProt Q08881); settings: ITK; 1 uM
T2 sequence (Q08881 1-620): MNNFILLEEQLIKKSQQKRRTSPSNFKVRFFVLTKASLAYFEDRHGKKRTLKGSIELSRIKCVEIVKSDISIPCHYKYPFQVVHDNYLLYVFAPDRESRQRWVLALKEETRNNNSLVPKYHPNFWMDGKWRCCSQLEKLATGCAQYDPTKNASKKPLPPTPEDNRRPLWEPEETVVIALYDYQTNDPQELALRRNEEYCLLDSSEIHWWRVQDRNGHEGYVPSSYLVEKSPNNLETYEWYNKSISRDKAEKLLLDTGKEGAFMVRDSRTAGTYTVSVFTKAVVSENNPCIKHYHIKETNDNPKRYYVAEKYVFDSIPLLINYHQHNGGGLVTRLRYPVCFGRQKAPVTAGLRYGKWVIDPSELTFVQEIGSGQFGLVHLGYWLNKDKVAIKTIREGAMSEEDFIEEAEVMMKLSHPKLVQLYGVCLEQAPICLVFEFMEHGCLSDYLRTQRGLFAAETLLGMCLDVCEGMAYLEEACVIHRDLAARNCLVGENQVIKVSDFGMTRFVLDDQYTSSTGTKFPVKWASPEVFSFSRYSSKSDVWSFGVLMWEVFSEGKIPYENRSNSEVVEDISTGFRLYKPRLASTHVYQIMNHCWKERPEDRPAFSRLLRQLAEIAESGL
Protocol: as §1

[16] = biological target: various enzymes (Homo sapiens, UniProt P00533, L858R/T790M)
Protocol: as §1

Chain of various enzymes (Homo sapiens, UniProt Q9H4A3) (Q9H4A3 whole entry): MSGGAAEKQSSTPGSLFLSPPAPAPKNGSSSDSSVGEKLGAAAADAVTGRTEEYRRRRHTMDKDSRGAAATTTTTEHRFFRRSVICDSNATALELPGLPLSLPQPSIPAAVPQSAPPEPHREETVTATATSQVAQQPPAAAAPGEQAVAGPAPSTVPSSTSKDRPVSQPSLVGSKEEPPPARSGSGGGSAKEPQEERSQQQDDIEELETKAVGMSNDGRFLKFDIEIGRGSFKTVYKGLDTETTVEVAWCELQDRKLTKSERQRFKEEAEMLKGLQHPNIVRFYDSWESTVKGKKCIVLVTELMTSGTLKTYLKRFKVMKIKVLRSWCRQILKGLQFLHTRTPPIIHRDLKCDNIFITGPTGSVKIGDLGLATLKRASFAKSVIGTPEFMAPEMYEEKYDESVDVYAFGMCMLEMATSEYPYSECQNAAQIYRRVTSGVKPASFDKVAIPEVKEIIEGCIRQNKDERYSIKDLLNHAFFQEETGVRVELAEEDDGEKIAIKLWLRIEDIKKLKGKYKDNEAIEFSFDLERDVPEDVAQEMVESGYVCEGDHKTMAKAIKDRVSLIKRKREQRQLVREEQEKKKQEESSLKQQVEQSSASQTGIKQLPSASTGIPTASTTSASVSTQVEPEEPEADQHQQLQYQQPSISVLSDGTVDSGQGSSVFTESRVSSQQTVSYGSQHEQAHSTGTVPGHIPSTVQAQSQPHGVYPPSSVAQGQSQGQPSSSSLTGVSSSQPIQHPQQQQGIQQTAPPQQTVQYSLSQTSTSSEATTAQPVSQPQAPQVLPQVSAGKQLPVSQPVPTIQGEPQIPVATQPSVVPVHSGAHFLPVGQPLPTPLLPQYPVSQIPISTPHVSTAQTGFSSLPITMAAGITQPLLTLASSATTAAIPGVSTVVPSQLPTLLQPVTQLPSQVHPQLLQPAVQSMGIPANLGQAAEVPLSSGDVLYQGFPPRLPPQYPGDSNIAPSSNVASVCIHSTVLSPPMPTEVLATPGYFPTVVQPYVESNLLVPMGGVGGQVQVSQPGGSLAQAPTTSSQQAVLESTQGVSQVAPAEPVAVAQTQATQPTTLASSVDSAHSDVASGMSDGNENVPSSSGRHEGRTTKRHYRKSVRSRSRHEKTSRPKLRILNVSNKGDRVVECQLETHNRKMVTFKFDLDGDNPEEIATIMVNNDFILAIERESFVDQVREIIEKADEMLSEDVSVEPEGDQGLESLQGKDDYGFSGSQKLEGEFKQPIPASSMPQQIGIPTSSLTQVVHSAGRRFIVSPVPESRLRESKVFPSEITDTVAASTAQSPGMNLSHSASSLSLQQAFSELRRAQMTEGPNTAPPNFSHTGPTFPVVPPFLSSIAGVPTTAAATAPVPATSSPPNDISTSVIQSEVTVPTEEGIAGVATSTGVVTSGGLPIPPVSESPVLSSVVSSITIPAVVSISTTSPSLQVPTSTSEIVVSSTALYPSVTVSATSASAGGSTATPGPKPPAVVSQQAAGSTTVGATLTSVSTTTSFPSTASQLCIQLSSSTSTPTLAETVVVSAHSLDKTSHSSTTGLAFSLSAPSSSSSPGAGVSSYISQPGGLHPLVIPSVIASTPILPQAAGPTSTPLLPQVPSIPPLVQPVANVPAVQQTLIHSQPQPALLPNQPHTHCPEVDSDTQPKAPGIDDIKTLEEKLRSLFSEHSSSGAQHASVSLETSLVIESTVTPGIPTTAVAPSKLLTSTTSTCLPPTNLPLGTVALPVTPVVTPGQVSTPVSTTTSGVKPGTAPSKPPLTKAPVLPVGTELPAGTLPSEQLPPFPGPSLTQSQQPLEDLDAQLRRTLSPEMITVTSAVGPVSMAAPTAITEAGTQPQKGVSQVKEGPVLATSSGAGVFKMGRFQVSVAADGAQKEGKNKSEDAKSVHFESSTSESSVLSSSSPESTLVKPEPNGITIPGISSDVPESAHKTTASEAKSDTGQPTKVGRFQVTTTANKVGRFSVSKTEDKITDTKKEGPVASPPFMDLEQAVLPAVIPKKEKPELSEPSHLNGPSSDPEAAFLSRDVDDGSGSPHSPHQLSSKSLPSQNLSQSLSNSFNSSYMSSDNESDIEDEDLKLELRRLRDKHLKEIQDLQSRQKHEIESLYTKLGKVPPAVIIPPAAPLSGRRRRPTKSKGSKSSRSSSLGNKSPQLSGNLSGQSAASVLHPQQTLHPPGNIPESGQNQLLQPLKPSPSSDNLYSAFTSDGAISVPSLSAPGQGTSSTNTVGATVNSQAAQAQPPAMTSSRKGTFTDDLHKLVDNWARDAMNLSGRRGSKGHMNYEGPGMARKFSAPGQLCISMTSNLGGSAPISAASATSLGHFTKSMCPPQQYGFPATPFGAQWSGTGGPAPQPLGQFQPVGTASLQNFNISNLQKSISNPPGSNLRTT

SMILES | Ambit profiling [1] | Ambit profiling [2] | Ambit profiling [3] | Ambit profiling [7] | Ambit profiling [8] | Ambit profiling [9] | Ambit profiling ([11]; RSK4(Kin.Dom.1-N-terminal)) | Ambit profiling ([11]; RSK4(Kin.Dom.2-C-terminal)) | Ambit profiling [12] | Ambit profiling [13] | Ambit profiling [14] | Ambit profiling [15] | other results
CN1Cc2nn(C)cc2-c2cnc3[nH]cc(c3c2)-c2cnn(c2)CCCC1=O [Compound 41, (Z)-31,5-dimethyl-11H,21H,31H-5-aza-2(3,5)-pyrrolo[2,3-b]pyridina-1(4,1),3(4,3)-dipyrazolacyclononaphan-6-one] | 100 | 95 | 89 | 100 | 58 | 0.75 | 5.6 | 63 | 63 | 70 | 99 | 65 | Ambit profiling ([4]; EGFR(L861Q), 1 uM): 100; Ambit profiling ([5]; EGFR(G719C), 1 uM): 100; Ambit profiling ([6]; EGFR(L856R), 1 uM): 87; Ambit profiling ([10]; EGFR(G719S), 1 uM): 100; Ambit profiling ([16]; EGFR(L858R, T790M), 1 uM): 14
CN1Cc2nn(C)c(C#N)c2-c2cnc3[nH]cc(c3c2)-c2cn(nc2C(F)(F)F)CCCC1=O [Compound 48, (Z)-31,5-dimethyl-6-oxo-13-(trifluoromethyl)-11H,21H,31H-5-aza-2(3,5)-pyrrolo[2,3-b]pyridina-1(4,1),3(4,3)-dipyrazolacyclononaphane-35-carbonitrile] | 77 | 100 | 100 | 98 | 97 | 14 | 7.5 | 69 | 100 | 68 | 74 | 100 | Ambit profiling [4]: 59; Ambit profiling [5]: 86; Ambit profiling [6]: 63; Ambit profiling [10]: 71; Ambit profiling [16]: 50
